Laboratory results taken from PMC5358098 (ACS chemical neuroscience, 2016).
Read-outs that look alike come from different tables or passages of the source.

How the values were obtained:
CB1R [1] = target: T1, CB1R (Mus musculus, UniProt P47746); assay: Operational model bias analysis, Neuro2a cells; assay type: cell-based; conditions: for ΔΔlog R β-arrestin1/pPLCβ3: reference 2-AG + GAT100
CB1R [2] = tested on: CB1R
CB1R [3] = target: T1, CB1R; conditions: STHdh^Q7/Q7; 1 μM + 500 nM CP55,940
CB1R [4] = target: T2, CB1R (Homo sapiens, UniProt P21554); assay type: cell-based; conditions: HEK293A, 10 min
CB1R [5] = target: T2, CB1R; assay: cell-based
CB1R [6] = assay type: cell-based; conditions: mean of data for the pathway (Table 2), all cells and orthosteric ligands
hCB1R = assay: Operational model bias analysis, HEK293A cells; assay type: cell-based, human; conditions: HEK293A; for ΔΔlog R β-arrestin1/cAMP / ΔΔlog R β-arrestin1/pPLCβ3: reference 2-AG + GAT100
CB1R [7] = assay type: cell-based; conditions: mean of data for the pathway (Table 3), all cells and orthosteric ligands
CB1R [8] = target: T2, CB1R; assay type: cell-based; conditions: HEK293A, 30 min
CB1R [9] = target: T1, CB1R; assay type: cell-based; conditions: Neuro2a, 10 min
CB1R [10] = target: T1, CB1R; assay: Operational model bias analysis, STHdh^Q7/Q7 cells; conditions: STHdh^Q7/Q7
CB1R [11] = target: T2, CB1R; assay: cell-based; assay type: cell-based
CB1R [12] = target: T2, CB1R; assay: [3H]SR141716A equilibrium binding, hCB1R CHO cell membranes
CB1R [13] = target: T1, CB1R; assay type: cell-based; conditions: Neuro2a, 10 min; remark: listed apart in the source
CB1R [14] = target: T2, CB1R; assay type: cell-based; conditions: Neuro2a, 30 min
CB1R [15] = conditions: cited from earlier work
CB1R [16] = target: T2, CB1R; assay: cell-based; assay type: cell-based; remark: listed apart in the source
[17] = 500 nM 2-AG + 1 nM-10 μM allosteric modulator
[18] = 500 nM AEA + 1 nM-10 μM allosteric modulator
[19] = 500 nM CP55,940 + 1 nM-10 μM allosteric modulator

T1 sequence (P47746 whole entry): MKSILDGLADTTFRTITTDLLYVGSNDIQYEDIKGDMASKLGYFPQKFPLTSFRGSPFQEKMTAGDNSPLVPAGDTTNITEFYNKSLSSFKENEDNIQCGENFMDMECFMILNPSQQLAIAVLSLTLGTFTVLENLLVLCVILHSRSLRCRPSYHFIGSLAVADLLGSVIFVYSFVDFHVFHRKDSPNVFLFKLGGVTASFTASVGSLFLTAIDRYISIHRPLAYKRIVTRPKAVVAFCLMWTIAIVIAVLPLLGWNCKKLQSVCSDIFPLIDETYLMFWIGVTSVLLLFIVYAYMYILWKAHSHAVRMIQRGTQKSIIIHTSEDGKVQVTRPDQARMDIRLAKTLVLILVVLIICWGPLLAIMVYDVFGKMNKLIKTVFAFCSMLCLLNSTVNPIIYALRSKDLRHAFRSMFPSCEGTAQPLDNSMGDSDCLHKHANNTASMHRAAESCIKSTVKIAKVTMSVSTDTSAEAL
T2 sequence (P21554 whole entry): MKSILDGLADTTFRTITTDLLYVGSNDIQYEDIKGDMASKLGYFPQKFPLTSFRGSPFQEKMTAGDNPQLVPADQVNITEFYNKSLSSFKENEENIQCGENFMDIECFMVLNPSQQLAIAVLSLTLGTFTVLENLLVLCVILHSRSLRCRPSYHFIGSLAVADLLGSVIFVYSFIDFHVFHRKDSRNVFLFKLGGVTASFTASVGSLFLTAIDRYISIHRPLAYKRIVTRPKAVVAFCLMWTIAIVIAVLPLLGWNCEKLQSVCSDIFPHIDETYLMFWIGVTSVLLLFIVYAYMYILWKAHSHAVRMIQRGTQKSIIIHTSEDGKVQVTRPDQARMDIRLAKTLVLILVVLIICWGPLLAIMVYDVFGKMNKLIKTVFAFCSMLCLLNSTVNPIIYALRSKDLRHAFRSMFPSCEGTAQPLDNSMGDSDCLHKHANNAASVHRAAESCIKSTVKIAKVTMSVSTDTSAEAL

For CCc1c(C(=O)NCCc2ccc(N3CCCCC3)cc2)[nH]c2ccc(N=C=S)cc12 [GAT100, 3-ethyl-5-isothiocyanato-N-(4-(piperidin-1-yl)phenethyl)-1H-indole-2-carboxamide], the “BF β-arrestin1/pERK1/2” value (CB1R [1]; [17]) was 1.0, the “BF β-arrestin1/pPLCβ3” value (CB1R [1]; [17]) was 1.0 and the “ΔΔlog R β-arrestin1/pPLCβ3” value (CB1R [1]; [17]) was 0.0 ± 0.1. For the same molecule, the “BF β-arrestin1/pERK1/2” value (CB1R [1]; [18]) was 7.9, the “BF β-arrestin1/pPLCβ3” value (CB1R [1]; [18]) was 15.8 and the “ΔΔlog R β-arrestin1/pPLCβ3” value (CB1R [1]; [18]) was 1.2 ± 0.1. The “BF β-arrestin1/pERK1/2” value (CB1R [1]; [19]) was 10.0, the “BF β-arrestin1/pPLCβ3” value (CB1R [1]; [19]) was 3.2 and the “ΔΔlog R β-arrestin1/pPLCβ3” value (CB1R [1]; [19]) was 0.5 ± 0.2. For the same molecule, the “Emax, 2-AG (probe dependence summary)” value (CB1R [2]; mean of data for 2-AG (Tables 1-4)) was 0.31 ± 0.02, the “Emax, AEA (probe dependence summary)” value (CB1R [2]; mean of data for AEA (Tables 1-4)) was 0.36 ± 0.03 and the “Emax, CP55,940 (probe dependence summary)” value (CB1R [2]; mean of data for CP55,940 (Tables 1-4)) was 0.33 ± 0.02. For the same molecule, the “Emax, HEK293A (cell dependence summary)” value (CB1R [2]; mean of data for HEK293A (Tables 1-3)) was 0.34 ± 0.01, the “Emax, Neuro2a (cell dependence summary)” value (CB1R [2]; mean of data for Neuro2a (Tables 1-3)) was 0.32 ± 0.01 and the “Emax, STHdh^Q7/Q7 (cell dependence summary)” value (CB1R [2]; mean of data for STHdh^Q7/Q7 (Tables 1-3)) was 0.34 ± 0.02. For the same molecule, the “effect on CP55,940-induced CB1R internalization (fraction of CB1R at the plasma membrane)” value (CB1R [3]) was “reversed this effect”, the “Emax pERK1/2/Total ERK1/2, 2-AG” value (CB1R [4]; 1 nM-10 μM 2-AG + 1 μM NAM) was 0.33 ± 0.02 and the “Emax pERK1/2/Total ERK1/2, AEA” value (CB1R [4]; 1 nM-10 μM AEA + 1 μM NAM) was 0.31 ± 0.02. For the same molecule, the “Emax pERK1/2/Total ERK1/2, CP55,940” value (CB1R [4]; 1 nM-10 μM CP55,940 + 1 μM NAM) was 0.29 ± 0.02, the IC50 (CB1R [5]) was 0.0358 µM and the “Emax, β-arrestin1 (pathway ligand bias summary)” value (CB1R [5]; mean of data for the pathway (Table 1), all cells and orthosteric ligands) was 0.30 ± 0.01. The “Emax, PLCβ3 (pathway ligand bias summary)” value (CB1R [6]) was 0.38 ± 0.01, the “BF β-arrestin1/cAMP” value (hCB1R; [17]) was 1.0 and the “BF β-arrestin1/pERK1/2” value (hCB1R; [17]) was 1.0. The “BF β-arrestin1/pPLCβ3” value (hCB1R; [17]) was 1.0, the “ΔΔlog R β-arrestin1/cAMP” value (hCB1R; [17]) was 0.0 ± 0.1 and the “ΔΔlog R β-arrestin1/pPLCβ3” value (hCB1R; [17]) was 0.0. For the same molecule, the “BF β-arrestin1/cAMP” value (hCB1R; [18]) was 0.8, the “BF β-arrestin1/pERK1/2” value (hCB1R; [18]) was 0.3 and the “BF β-arrestin1/pPLCβ3” value (hCB1R; [18]) was 0.1. The “ΔΔlog R β-arrestin1/cAMP” value (hCB1R; [18]) was “–0.1 ± 0.1”, the “ΔΔlog R β-arrestin1/pPLCβ3” value (hCB1R; [18]) was “–1.2 ± 0.8” and the “BF β-arrestin1/cAMP” value (hCB1R; [19]) was 1.3. For the same molecule, the “BF β-arrestin1/pERK1/2” value (hCB1R; [19]) was 0.6, the “BF β-arrestin1/pPLCβ3” value (hCB1R; [19]) was 0.6 and the “ΔΔlog R β-arrestin1/cAMP” value (hCB1R; [19]) was 0.1 ± 0.1. For the same molecule, the “ΔΔlog R β-arrestin1/pPLCβ3” value (hCB1R; [19]) was “–0.2 ± 0.1”, the “Emax, ERK (pathway ligand bias summary)” value (CB1R [7]) was 0.32 ± 0.01 and the “Emax (BRETEff), 2-AG” value (CB1R [8]; 1 nM-10 μM 2-AG + 1 μM NAM) was 0.29 ± 0.01. For the same molecule, the “Emax (BRETEff), AEA” value (CB1R [8]; 1 nM-10 μM AEA + 1 μM NAM) was 0.37 ± 0.03, the “Emax (BRETEff), CP55,940” value (CB1R [8]; 1 nM-10 μM CP55,940 + 1 μM NAM) was 0.30 ± 0.04 and the “Emax pERK1/2/Total ERK1/2, 2-AG” value (CB1R [9]; 1 nM-10 μM 2-AG + 1 μM NAM) was 0.31 ± 0.02. The “Emax pERK1/2/Total ERK1/2, AEA” value (CB1R [9]; 1 nM-10 μM AEA + 1 μM NAM) was 0.28 ± 0.02, the “Emax pERK1/2/Total ERK1/2, CP55,940” value (CB1R [9]; 1 nM-10 μM CP55,940 + 1 μM NAM) was 0.33 ± 0.02 and the “BF β-arrestin1/pERK1/2” value (CB1R [10]; [17]) was 1.0. For the same molecule, the “BF β-arrestin1/pPLCβ3” value (CB1R [10]; [17]) was 1.0, the “BF β-arrestin1/pERK1/2” value (CB1R [10]; [18]) was 1.3 and the “BF β-arrestin1/pPLCβ3” value (CB1R [10]; [18]) was 7.9. For the same molecule, the “BF β-arrestin1/pERK1/2” value (CB1R [10]; [19]) was 0.6, the “BF β-arrestin1/pPLCβ3” value (CB1R [10]; [19]) was 5.0 and the IC50 (CB1R [11]) was 0.741 µM. For the same molecule, the “effect on cAMP levels in the absence of orthosteric agonists (inverse agonism)” value (CB1R [11]; HEK-CRE, 10 μM forskolin + 1 nM to 10 μM compound alone, 4 h) was “did not affect cAMP accumulation”, the IC50 (CB1R [11]; IC50, cAMP, CP55,940) was 0.834 µM and the “Emax, cAMP (pathway ligand bias summary)” value (CB1R [11]; mean of data for the pathway (Table 4), cAMP Emax divided by 100) was 0.16 ± 0.04. For the same molecule, the EC50 (CB1R [12]) was 0.41 µM, the “[3H]SR141716A binding at 10 μM” value (CB1R [12]; 10 μM) was “did not completely abrogate” and the “fold greater potency than Org27569 as inhibitor of [3H]SR141716A binding” value (CB1R [12]; EC50 ratio) was ~ 6 fold. The Emax (CB1R [12]; read-out: Emax, [3H]SR141716A binding) was 22.6%, the “Emax pPLCβ3/Total PLCβ3, 2-AG” value (CB1R [13]; 1 nM-10 μM 2-AG + 1 μM NAM) was 0.34 ± 0.02 and the “Emax pPLCβ3/Total PLCβ3, AEA” value (CB1R [13]; 1 nM-10 μM AEA + 1 μM NAM) was 0.37 ± 0.02. For the same molecule, the “Emax pPLCβ3/Total PLCβ3, CP55,940” value (CB1R [13]; 1 nM-10 μM CP55,940 + 1 μM NAM) was 0.39 ± 0.02, the “Emax (BRETEff), 2-AG” value (CB1R [14]; 1 nM-10 μM 2-AG + 1 μM NAM) was 0.25 ± 0.03 and the “Emax (BRETEff), AEA” value (CB1R [14]; 1 nM-10 μM AEA + 1 μM NAM) was 0.29 ± 0.02. The “Emax (BRETEff), CP55,940” value (CB1R [14]; 1 nM-10 μM CP55,940 + 1 μM NAM) was 0.34 ± 0.02, the “effect on CP55,940 equilibrium binding by CB1R” value (CB1R [15]) was “increase CP55,940 equilibrium binding” and the “Emax pPLCβ3/Total PLCβ3, 2-AG” value (CB1R [16]; HEK293A, 1 nM-10 μM 2-AG + 1 μM NAM, 10 min) was 0.39 ± 0.02. The “Emax pPLCβ3/Total PLCβ3, AEA” value (CB1R [16]; HEK293A, 1 nM-10 μM AEA + 1 μM NAM, 10 min) was 0.36 ± 0.01, the “Emax pPLCβ3/Total PLCβ3, CP55,940” value (CB1R [16]; HEK293A, 1 nM-10 μM CP55,940 + 1 μM NAM, 10 min) was 0.39 ± 0.01 and the IC50 (CB1R [16]; IC50, PLCβ3 phosphorylation, CP55,940) was 0.0766 µM.
